# Tested on: 596521-263-R-J1-PDC complex spheroids, viability % of control
# Assay: Anticancer human tumor 596521-263-R-J1-PDC patient-derived soft tissue sarcoma cell line growth inhibition [GQUAD]
# Settings: for IC50: curve of first compound; for viability, T/C: stronger effect = lower value
# Procedure, shortened: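 Viability of tumor cells grown as complex spheroids with endothelial and stromal cells, exposed to drug combinations. Top concentration at or near clinical Cmax (else 10 microM), diluted in half-log increments.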
# [1] = second compound 0.0316 µM, first compound 0.0316 µM
# [2] = second compound 0.0316 µM, first compound 0.316 µM
# [3] = second compound 0.1 µM, first compound 0.0316 µM
# [4] = second compound 0.1 µM, first compound 0.316 µM
# [5] = second compound 0.316 µM, first compound 0.0316 µM
# [6] = second compound 0.316 µM, first compound 0.316 µM
# [7] = second compound 1 µM, first compound 0.0316 µM
# [8] = second compound 1 µM, first compound 0.316 µM
# [9] = second compound 3.16 µM, first compound 0.0316 µM
# [10] = second compound 3.16 µM, first compound 0.316 µM
# [11] = second compound 10 µM, first compound 0.0316 µM
# [12] = second compound 10 µM, first compound 0.316 µM
# [13] = second compound 0.0316 µM, first compound 0.1 µM
# [14] = second compound 0.0316 µM, first compound 1 µM
# [15] = second compound 0.0316 µM, first compound 3.16 µM
# [16] = second compound 0.0316 µM, first compound 10 µM
# [17] = second compound 0.1 µM, first compound 0.1 µM
# [18] = second compound 0.1 µM, first compound 1 µM
# [19] = second compound 0.1 µM, first compound 3.16 µM
# [20] = second compound 0.1 µM, first compound 10 µM
# [21] = second compound 0.316 µM, first compound 0.1 µM
# [22] = second compound 0.316 µM, first compound 1 µM
# [23] = second compound 0.316 µM, first compound 3.16 µM
# [24] = second compound 0.316 µM, first compound 10 µM
# [25] = second compound 1 µM, first compound 0.1 µM
# [26] = second compound 1 µM, first compound 1 µM
# [27] = second compound 1 µM, first compound 3.16 µM
# [28] = second compound 1 µM, first compound 10 µM
# [29] = second compound 3.16 µM, first compound 0.1 µM
# [30] = second compound 3.16 µM, first compound 1 µM
# [31] = second compound 3.16 µM, first compound 3.16 µM
# [32] = second compound 3.16 µM, first compound 10 µM
# [33] = second compound 10 µM, first compound 0.1 µM
# [34] = second compound 10 µM, first compound 1 µM
# [35] = second compound 10 µM, first compound 3.16 µM
# [36] = second compound 10 µM, first compound 10 µM
# 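Further: spheroids exposed to drugs for 7 days before viability reading.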
# 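Wherever viability, T/C is given: 100% = DMSO vehicle control viability.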
smiles,measurement,setting,value
Cn1ncnc1[C@H]1c2n[nH]c(=O)c3cc(F)cc(c23)N[C@@H]1c1ccc(F)cc1 + CN(C)c1ccc(Nc2c3ccc(NC(=O)CCN4CCCC4)cc3nc3cc(NC(=O)CCN4CCCC4)ccc23)cc1,IC50,second compound 0.0316 µM,> 316 nM
same,IC50,second compound 0.1 µM,> 316 nM
same,IC50,second compound 0.316 µM,> 316 nM
same,IC50,second compound 1 µM,> 316 nM
same,IC50,second compound 3.16 µM,> 316 nM
same,IC50,second compound 10 µM,> 316 nM
same,"viability, T/C","second compound 0.0316 µM, first compound 0.000999 µM",106%
same,"viability, T/C","second compound 0.0316 µM, first compound 0.00316 µM",89.4%
same,"viability, T/C","second compound 0.0316 µM, first compound 0.00999 µM",90.6%
same,"viability, T/C",[1],84.8%
same,"viability, T/C","second compound 0.0316 µM, first compound 0.0999 µM",99.6%
same,"viability, T/C",[2],80.5%
same,"viability, T/C","second compound 0.1 µM, first compound 0.000999 µM",98.4%
same,"viability, T/C","second compound 0.1 µM, first compound 0.00316 µM",92.1%
same,"viability, T/C","second compound 0.1 µM, first compound 0.00999 µM",96.6%
same,"viability, T/C",[3],94.7%
same,"viability, T/C","second compound 0.1 µM, first compound 0.0999 µM",86.6%
same,"viability, T/C",[4],93.5%
same,"viability, T/C","second compound 0.316 µM, first compound 0.000999 µM",104%
same,"viability, T/C","second compound 0.316 µM, first compound 0.00316 µM",97.9%
same,"viability, T/C","second compound 0.316 µM, first compound 0.00999 µM",102%
same,"viability, T/C",[5],94.6%
same,"viability, T/C","second compound 0.316 µM, first compound 0.0999 µM",83.4%
same,"viability, T/C",[6],80%
same,"viability, T/C","second compound 1 µM, first compound 0.000999 µM",92.4%
same,"viability, T/C","second compound 1 µM, first compound 0.00316 µM",89.5%
same,"viability, T/C","second compound 1 µM, first compound 0.00999 µM",99.8%
same,"viability, T/C",[7],85.1%
same,"viability, T/C","second compound 1 µM, first compound 0.0999 µM",95%
same,"viability, T/C",[8],76.1%
same,"viability, T/C","second compound 3.16 µM, first compound 0.000999 µM",94%
same,"viability, T/C","second compound 3.16 µM, first compound 0.00316 µM",97%
same,"viability, T/C","second compound 3.16 µM, first compound 0.00999 µM",98.4%
same,"viability, T/C",[9],85.5%
same,"viability, T/C","second compound 3.16 µM, first compound 0.0999 µM",92.6%
same,"viability, T/C",[10],80.8%
same,"viability, T/C","second compound 10 µM, first compound 0.000999 µM",70.1%
same,"viability, T/C","second compound 10 µM, first compound 0.00316 µM",58.9%
same,"viability, T/C","second compound 10 µM, first compound 0.00999 µM",67.3%
same,"viability, T/C",[11],64.9%
same,"viability, T/C","second compound 10 µM, first compound 0.0999 µM",61.5%
same,"viability, T/C",[12],60.2%
CCCS(=O)(=O)Nc1ccc(F)c(C(=O)c2c[nH]c3ncc(-c4ccc(Cl)cc4)cc23)c1F + Cc1[nH]c2ccc(F)cc2c1-c1nc2c3cccnc3c3ncccc3c2[nH]1,IC50,second compound 0.0316 µM,504 nM
same,IC50,second compound 0.1 µM,358 nM
same,IC50,second compound 0.316 µM,836 nM
same,IC50,second compound 1 µM,498 nM
same,IC50,second compound 3.16 µM,376 nM
same,IC50,second compound 10 µM,419 nM
same,"viability, T/C",[1],107%
same,"viability, T/C",[13],73.5%
same,"viability, T/C",[2],56.2%
same,"viability, T/C",[14],41.7%
same,"viability, T/C",[15],40.5%
same,"viability, T/C",[16],40.2%
same,"viability, T/C",[3],89.3%
same,"viability, T/C",[17],74.2%
same,"viability, T/C",[4],51.8%
same,"viability, T/C",[18],36.8%
same,"viability, T/C",[19],42.8%
same,"viability, T/C",[20],31.1%
same,"viability, T/C",[5],112%
same,"viability, T/C",[21],81.4%
same,"viability, T/C",[6],61.1%
same,"viability, T/C",[22],44.4%
same,"viability, T/C",[23],46.3%
same,"viability, T/C",[24],33.1%
same,"viability, T/C",[7],84.4%
same,"viability, T/C",[25],81.6%
same,"viability, T/C",[8],57.2%
same,"viability, T/C",[26],38.4%
same,"viability, T/C",[27],44.4%
same,"viability, T/C",[28],29.7%
same,"viability, T/C",[9],92.6%
same,"viability, T/C",[29],70.4%
same,"viability, T/C",[10],53.2%
same,"viability, T/C",[30],37.6%
same,"viability, T/C",[31],37.9%
same,"viability, T/C",[32],32%
same,"viability, T/C",[11],74.6%
same,"viability, T/C",[33],58.5%
same,"viability, T/C",[12],58%
same,"viability, T/C",[34],38.1%
same,"viability, T/C",[35],39.3%
same,"viability, T/C",[36],30.4%
CC1COCCN1c1cc(-c2ccnn2C)c2ccnc(-c3ccn[nH]3)c2n1 (stereo unspecified) + Cc1[nH]c2ccc(F)cc2c1-c1nc2c3cccnc3c3ncccc3c2[nH]1,IC50,second compound 0.0316 µM,395 nM
same,IC50,second compound 0.1 µM,510 nM
same,IC50,second compound 0.316 µM,317 nM
same,IC50,second compound 1 µM,553 nM
same,IC50,second compound 3.16 µM,602 nM
same,IC50,second compound 10 µM,289 nM
same,"viability, T/C",[1],84.3%
same,"viability, T/C",[13],61.8%
same,"viability, T/C",[2],55.6%
same,"viability, T/C",[14],40.1%
same,"viability, T/C",[15],32.5%
same,"viability, T/C",[16],26%
same,"viability, T/C",[3],81.3%
same,"viability, T/C",[17],69.5%
same,"viability, T/C",[4],52%
same,"viability, T/C",[18],41.8%
same,"viability, T/C",[19],37.9%
same,"viability, T/C",[20],23.2%
same,"viability, T/C",[5],75.9%
same,"viability, T/C",[21],57.2%
same,"viability, T/C",[6],50%
same,"viability, T/C",[22],43.2%
same,"viability, T/C",[23],31.8%
same,"viability, T/C",[24],25.3%
same,"viability, T/C",[7],71%
same,"viability, T/C",[25],62.5%
same,"viability, T/C",[8],57.1%
same,"viability, T/C",[26],43.5%
same,"viability, T/C",[27],34.3%
same,"viability, T/C",[28],26%
same,"viability, T/C",[9],67.3%
same,"viability, T/C",[29],62.4%
same,"viability, T/C",[10],53.2%
same,"viability, T/C",[30],47.8%
same,"viability, T/C",[31],36.3%
same,"viability, T/C",[32],26.1%
same,"viability, T/C",[11],64.5%
same,"viability, T/C",[33],57%
same,"viability, T/C",[12],49.6%
same,"viability, T/C",[34],40.9%
same,"viability, T/C",[35],32.9%
same,"viability, T/C",[36],25.4%
